Assay results as given in US20260097105A1, “SYSTEMS, FORMULATIONS AND METHODS FOR GENERATING UNIVERSAL PEPTIDE/MHC COMPLEXES WITH ENGINEERED DISULFIDE CONNECTING THE HEAVY AND LIGHT CHAINS” (priority 2022, published 2026).

Legend:
[1] = target: T1, MR1 (Homo sapiens, UniProt Q95460, C283S/G138C); experiment: Fluorescence polarization competitive ligand binding (JYM20, DCF-loaded open MR1); conditions: 10 nM JYM20; 200 nM DCF-loaded open MR1; pH 7.4
T1 construct: made in house; host or cells: Escherichia coli BL21(DE3) per the general methods
T1 sequence (Q95460 with tags, fused parts or gaps G138C/C283S): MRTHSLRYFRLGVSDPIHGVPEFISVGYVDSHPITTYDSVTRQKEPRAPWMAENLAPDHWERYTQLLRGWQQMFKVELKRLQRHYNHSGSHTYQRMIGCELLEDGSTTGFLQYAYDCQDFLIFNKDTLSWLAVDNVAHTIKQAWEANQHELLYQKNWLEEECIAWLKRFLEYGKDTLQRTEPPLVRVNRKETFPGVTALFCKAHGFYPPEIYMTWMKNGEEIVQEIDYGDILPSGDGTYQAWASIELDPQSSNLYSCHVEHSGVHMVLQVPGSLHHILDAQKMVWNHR
T1 sequence (as listed by the source partner): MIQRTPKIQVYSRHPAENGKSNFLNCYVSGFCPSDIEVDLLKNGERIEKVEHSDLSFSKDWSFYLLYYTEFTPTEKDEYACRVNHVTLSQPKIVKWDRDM
Method: To optimize fluorescence polarization (FP), a direct binding assay between JYM20 and MR1 was conducted to determine the minimum concentration of MR1 and JYM20 required for a maximal signal, as well as the buffer conditions. The FP signal is generated by polarized excitation wavelengths, resulting in depolarized emission when JYM20 is free in solution (with low FP value). […] Because DCF is not a covalent binding ligand, the DCF-loaded open MR1 and JYM20 can together screen a wide range of cancer metabolites for MR1.
Briefly, a buffer consistent of 150 mM NaCl, 20 mM sodium phosphate, 0.05% Tween-20, pH 7.4 was used since Applicants don't need nonphysiologically acidic environment to break the Schiff base. A serial dilution of cancer metabolites in a range of 60-0.06 mM, which were selected from the preliminary in silico screening, was added to 200 nM MR1 and 10 nM JYM20 in a final volume of 100 μL. The kinetic association was monitored for 16 hours, and polarization measurements were recorded every 186 seconds. Excitation and emission values used to monitor the fluorescence of TAMRA-labeled peptides were 531 and 595 nm. All experiments were performed in triplicates at room temperature. Raw parallel (III) and perpendicular emission intensities (I⊥) were collected and converted to polarization (mP) values using the equation 1000*[(III−(G*I⊥))/(III+(G*I⊥))]. An optimized G-factor was determined to be 0.33 for TAMRA-labeled peptides in calculating baseline fluorescence. Non-linear regression fitting of one phase association allowed calculating plateau polarization (mP) values for each kinetic curve. Log transformed values of each peptide concentration were plotted against the plateau mP value, and an IC50 curve was fit using log (inhibitor) vs. response (three parameters) curve from GraphPad Prism v9^9.

[2] = system: WT or open HLA-A*29:02/FTSDYYQLY; experiment: Fluorescence polarization IC50 competition assay; assay type: binding, human; conditions: competitor vs FITCKLIDVFHQY
From the text: Kinetic association measurements were collected as previously described. Non-linear regression fitting allowed calculating plateau polarization (mP) values for each kinetic curve. Log transformed values of each peptide concentration were plotted against the plateau mP value, and an IC50 curve was fit.

Row | Molecule | relative binding affinities (IC50) to MR1 [1] | IC50, open compared to WT [2]
1 | O=C(O)C1=CC(=O)[C@@H](O)[C@H](O)C1 [3DA, 3-Dehydroshikimic acid] | low-millimolar | 
2 | O=C(O)Cc1ccccc1Nc1c(Cl)cccc1Cl [DCF, diclofenac, reference compound] | low-millimolar | 
3 | O=C(O)C1=C[C@@H](O)[C@@H](O)[C@H](O)C1 [SKA, shikimic acid] | low-millimolar | 
4 | O=c1ccn([C@@H]2O[C@H](COP(=O)(O)O)[C@@H](O)[C@H]2O)c(=O)[nH]1 [UMP, Uridine 5′-monophosphate] | low-millimolar | 
5 | ALIDVFHQY |  | same IC50
